Assay results published in patent US9883675B2, “Method for controlling pests” (SUMITOMO CHEMICAL COMPANY, LIMITED, priority 2013, dated 2018).

Tested on: Diamondback moth (Plutella xylostella)
Experiment: Test Example 1: Japanese radish seed treatment, mortality of Diamondback moth larvae
Format: in vivo
Settings: 48 h, average of two replications; for mortality at 0.01 mg: dose 0.01 mg/1 grain of seed; for mortality at 0.2 mg: dose 0.2 mg/1 grain of seed
Description: Each of the present fused heterocyclic compounds 3, 4, 5, 9, 15, 16, 17, 18, 19, 20, 22, 25, 72, 74, 85, 130, 399, 409, 414, 419, 443, 444, 445, 464 and 467 was dissolved in acetone (available from Wako Pure Chemical Industries, Ltd.) containing 5% (W/V) SOLGEN TW-20 (available from Daiichi-Kogyo Seiyaku Co. Ltd.) so as to give a prescribed concentration, and to prepare the testing solution.
Nine (9) grains of the Japanese raddish (Raphanus sativas var. longipinnatus) were placed in a 2 ml volume polypropylene microtube (manufactured by As One Co.) and thereto was added 18 μl of the above testing solution and the seeds in the microtube were shaken and stirred on Stirrer (Trade name: VORTEX-GENIE2, manufactured by Scientific Industries, Inc.). After the testing solution was spread uniformly to the whole seed, the seeds were allowed to air dry.
To a 90 ml volume of plastic cup filled with ten (10) g of culture soil (Trade name: Aisai No. 1; available from Katakura Chikkarin Co., Ltd.) was added water (5 ml) and thereto was seeded three (3) grains of the above seeds.
At four days after the seeding, Diamondback moth (Plutella xylostella) at the third instar larval stages were released in a ratio of 10 (ten) heads of insects per the cup, and then the cups were covered with nylon gauze and covered with a lid (hereinafter, referred to as “treated group”).
On the other hand, Japanese raddish was seeded by the similar procedures to the treated group except that the present fused heterocyclic compound was not dissolved in acetone (available from Wako Pure Chemical Industries, Ltd.) containing 5% (W/V) SOLGEN TW-20 (available from Daiichi-Kogyo Seiyaku Co. Ltd.), and the larvae were released, and the cups were covered with a lid (hereinafter, referred to as “Untreated group”).
At two days after the release, the surviving and death of the larvae were observed and on basis of the results of the observation, the mortalities of both groups were calculated by the following equation 1), respectively. Two replication tests were performed on each group. The average value is shown below. Mortality (%)=(Total number of […])/Total number of Tested insects×100 Equation 1)

[1] = third instar larvae released four days after seeding, observed two days after release
[2] = Diamondback moth third instar larvae released 4 days after seeding, observed 2 days after release

SMILES	mortality at 0.01 mg [1] [%]	mortality at 0.2 mg [1] [%]	mortality at 0.01 mg [2] [%]	mortality at 0.2 mg [2] [%]
CCS(=O)(=O)c1cccnc1-c1nc2cc(C(F)(F)C(F)(F)F)ccc2o1 [Present fused heterocyclic compound 467, 2-(3-Ethylsulfonylpyridin-2-yl)-5-pentafluoroethyl-benzoxazole]	100	100		
CCS(=O)(=O)c1cccnc1-c1nc2cc([S+]([O-])C(F)(F)F)ccc2o1 (stereo not drawn) [Present fused heterocyclic compound 444, 2-(3-ethylsulfonylpyridin-2-yl)-5-(trifluoromethylsulfinyl)benzoxazole]			100	100
CCS(=O)(=O)c1cc(C(F)(F)F)cnc1-c1nc2cc(C(F)(F)F)cnc2n1C [Present fused heterocyclic compound 5, 2-(3-ethylsulfonyl-5-trifluoromethylpyridin-2-yl)-3-methyl-6-trifluoromethyl-3H-imidazo[4,5-b]pyridine]			100	100
CCS(=O)(=O)c1cc(C(F)(F)C(F)(F)F)cnc1-c1nc2cc(C(F)(F)F)cnc2n1C [Present fused heterocyclic compound 72, 2-(3-ethylsulfonyl-5-pentafluoroethylpyridin-2-yl)-3-methyl-6-trifluoromethyl-3H-imidazo[4,5-b]pyridine]			100	100
CCSc1cc(C(F)(F)F)cnc1-c1nc2cc(C(F)(F)C(F)(F)F)cnc2n1C [Present fused heterocyclic compound 17, 2-(3-Ethylsulfanyl-5-trifluoromethyl-pyridin-2-yl)-3-methyl-6-pentafluoroethyl-3H-imidazo[4,5-b]pyridine]			100	100
CCS(=O)(=O)c1cc(C(F)(F)F)cnc1-c1nc2cc(C(F)(F)C(F)(F)F)c[n+]([O-])c2n1C [Present fused heterocyclic compound 409, 2-(3-ethylsulfonyl-5-trifluoromethyl-pyridin-2-yl)-3-methyl-6-pentafluoroethyl-3H-imidazo[4,5-b]pyridine 4-oxide]			100	100
CCSc1cccnc1-c1nc2cc(I)cnc2n1C [Present fused heterocyclic compound 9, 2-(3-ethylsulfanyl-pyridin-2-yl)-6-iodo-3-methyl-3H-imidazo[4,5-b]pyridine]			100	100
CCSc1cc(C(F)(F)F)cnc1-c1nc2cc(C(F)(F)F)cnc2n1C [Present fused heterocyclic compound 4, 2-(3-ethylsulfanyl-5-trifluoromethylpyridin-2-yl)-3-methyl-6-trifluoromethyl-3H-imidazo[4,5-b]pyridine]			100	100
CCS(=O)(=O)c1cccnc1-c1nc2cc(S(=O)(=O)C(F)(F)F)ccc2o1 [Present fused heterocyclic compound 445, 2-(3-ethylsulfonylpyridin-2-yl)-5-(trifluoromethylsulfonyl)benzoxazole]			100	100
CCS(=O)(=O)c1cccnc1-c1nc2cc(SC(F)(F)F)cnc2n1C [Present fused heterocyclic compound 15, 2-(3-ethylsulfonyl-pyridin-2-yl)-3-methyl-6-trifluoromethylsulfanyl-3H-imidazo[4,5-b]pyridine]			100	100
CC[S+]([O-])c1cc(C(F)(F)F)cnc1-c1nc2cc(C(F)(F)C(F)(F)F)cnc2n1C (stereo not drawn) [Present fused heterocyclic compound 18, 2-(3-Ethylsulfinyl-5-trifluoromethyl-pyridin-2-yl)-3-methyl-6-pentafluoroethyl-3H-imidazo[4,5-b]pyridine]			100	100
CCS(=O)(=O)c1cccnc1-c1nc2cc(C(F)(F)F)ccc2o1 [Present fused heterocyclic compound 85, 2-(3-Ethylsulfonylpyridin-2-yl)-5-trifluoromethyl-benzoxazole]			90	95
CCS(=O)(=O)c1cc(C(OC)(OC)OC)cnc1-c1nc2cc(C(F)(F)C(F)(F)F)cnc2n1C [Present fused heterocyclic compound 414, 2-(3-ethylsulfonyl-5-trimethoxymethyl-pyridin-2-yl)-3-methyl-6-pentafluoroethyl-3H-imidazo[4,5-b]pyridine]			95	100
CCS(=O)(=O)c1cc(C(F)(F)F)cnc1-c1nc2cc(S(=O)(=O)C(F)(F)F)cnc2n1C [Present fused heterocyclic compound 25, 2-(3-Ethylsulfonyl-5-trifluoromethyl-pyridin-2-yl)-3-methyl-6-trifluoromethylsulfonyl-3H-imidazo[4,5-b]pyridine]			100	100
CCS(=O)(=O)c1cccnc1-c1nc2cc(C(F)(F)F)cc(C#N)c2n1C [Present fused heterocyclic compound 130, 7-Cyano-2-(3-ethylsulfonylpyridin-2-yl)-1-methyl-5-trifluoromethyl-1H-benzimidazole]			100	80
CCS(=O)(=O)c1cccnc1-c1nc2cc(C(F)(F)F)cnc2n1C [Present fused heterocyclic compound 3, 2-(3-ethylsulfonylpyridin-2-yl)-3-methyl-6-trifluoromethyl-3H-imidazo[4,5-b]pyridine]			100	100
CCS(=O)(=O)c1cccnc1-c1nc2cc(SC(F)(F)F)ccc2o1 [Present fused heterocyclic compound 443, 2-(3-ethylsulfonylpyridin-2-yl)-5-(trifluoromethylsulfanyl)benzoxazole]			100	100
CCS(=O)(=O)c1cccnc1-c1nc2cc(C(F)(F)C(F)(F)F)cnc2o1 [Present fused heterocyclic compound 464, 2-(3-Ethylsulfonylpyridin-2-yl)-6-pentafluoroethyl-oxazolo[5,4-b]pyridine]			100	100
CCS(=O)(=O)c1cc(C(F)(F)C(F)(F)F)cnc1-c1nc2cc(C(F)(F)C(F)(F)F)cnc2n1C [Present fused heterocyclic compound 74, 2-(3-ethylsulfonyl-5-pentafluoroethylpyridin-2-yl)-3-methyl-6-pentafluoroethyl-3H-imidazo[4,5-b]pyridine]			100	100
CCS(=O)(=O)c1cccnc1-c1nc2cc(C(F)(F)F)c[n+]([O-])c2s1 [Present fused heterocyclic compound 22, 2-(3-ethylsulfonyl-2-yl)-6-(trifluoromethyl)thiazolo[5,4-b]pyridine 4-oxide]			100	100
CCS(=O)(=O)c1cc(C(F)(F)F)cnc1-c1nc2cc(C(F)(F)F)c(C#N)nc2n1C [Present fused heterocyclic compound 399, 5-cyano-2-(3-ethylsulfonyl-5-trifluoromethylpyridin-2-yl)-3-methyl-6-trifluoromethyl-3H-imidazo[4,5-b]pyridine]			90	95
CCS(=O)(=O)c1cc(C(F)(F)F)cnc1-c1nc2cc(C(F)(F)C(F)(F)F)cnc2n1C [Present fused heterocyclic compound 19, 2-(3-ethylsulfonyl-5-trifluoromethyl-pyridin-2-yl)-3-methyl-6-pentafluoroethyl-3H-imidazo[4,5-b]pyridine]			100	100
Cn1c(-c2ncc(C(F)(F)F)cc2S(C)(=O)=O)nc2cc(C(F)(F)C(F)(F)F)cnc21 [Present fused heterocyclic compound 419, 2-(3-Methylsulfonyl-5-trifluoromethylpyridin-2-yl)-3-methyl-6-pentafluoroethyl-3H-imidazo[4,5-b]pyridine]			100	100
CCS(=O)(=O)c1cccnc1-c1nc2cc([S+]([O-])C(F)(F)F)cnc2n1C (stereo not drawn) [Present fused heterocyclic compound 20, 2-(3-ethylsulfonyl-pyridin-2-yl)-3-methyl-6-trifluoromethylsulfinyl-3H-imidazo[4,5-b]pyridine]			100	100
